Tested on: Spodoptera eridania
Assay: Southern armyworm (Spodoptera eridania), 2nd instar larvae, on dipped Sieva lima bean foliage
Format: in vivo
Conditions: 300 ppm, observation at 5 days
Protocol: The active compounds were formulated • a. for testing the activity against Aphis gossypii, Myzus persicae, and Aphis fabae, as 50:50 acetone:water solutions amended with 100 ppm Kinetic® (surfactant), • b. for testing the activity against Spodoptera eridania as a 10.000 ppm solution in a mixture of 35% acetone and water, which was diluted with water, if needed,
After the experiments were completed, in each case the lowest concentration was determined at which the compound still caused an 75 to 100% inhibition or mortality in comparison with untreated controls (limit or minimal concentration).
Foliage of two Sieva lima beans plants at the first expanded true-leaf stage that are contained within a single 3.8 cm square plastic pot are dipped into the test solution with agitation for 3 seconds and allowed to dry in a hood. The pot is then placed in a 25.4 cm plastic zipper top bag and infested with ten 2nd instar caterpillars. At 5 days, observations are made of mortality, reduced feeding, or any interference with normal molting.

SMILES: Cc1cccc(CC(NC2=NCC(C)S2)c2ccccc2)c1 (stereo not shown) [Example 16]
- mortality in comparison with untreated controls: over 50%

Source: US7655600B2, “1-(azolin-2-yl)amino-1,2-diphenylethane compounds for combating insects, arachnids and nematodes” (BASF Aktiengesellschaft, priority 2003, dated 2010)
